The nature of data set [1]: Cytotoxicity against HUVEC assessed as cell viability at 64 ug/ml incubated for 24 hrs by CCK-8 assay. The conditions noted are these: human, HUVEC cells, at 64 µg/mL, read-out: Activity. Format: toxicity, cell-based. In general terms: Formazan colour is commonly taken as a measure of viable cells.
Data set [2] can be described thus: Induction of hemolysis in rabbit RBC at 16 ug/ml incubated for 1 hr. Type of data set: toxicity, cell-based, Oryctolagus cuniculus, Erythrocyte. The conditions noted are these: red blood cells, at 16 µg/mL, read-out: Activity.
A short description of data set [3]: Induction of hemolysis in rabbit RBC at 32 ug/ml incubated for 1 hr. Format: toxicity, cell-based, Oryctolagus cuniculus, Erythrocyte. The conditions noted are these: red blood cells, at 32 µg/mL, read-out: Activity.
Data set [4] in a line: Induction of hemolysis in rabbit RBC at 64 ug/ml incubated for 1 hr. Type of data set: toxicity, cell-based, Oryctolagus cuniculus, Erythrocyte. The conditions noted are these: red blood cells, at 64 µg/mL, read-out: Activity.
The nature of a further data set: in vitro. The conditions noted are these: human, Caco-2 cells; at 64 µg/mL.

Molecules are shown by their SMILES.

`C[C@@H]1[C@H](O)[C@@H](C)/C=C/C=C/C=C/C=C/C=C/C=C/C=C/[C@H](O[C@@H]2O[C@H](C)[C@@H](O)[C@H](N)[C@@H]2O)C[C@@H]2O[C@](O)(C[C@@H](O)C[C@@H](O)[C@H](O)CC[C@@H](O)C[C@@H](O)CC(=O)O[C@H]1C)C[C@H](O)[C@H]2C(=O)O` [AMPHOTERICIN B]: the viability at 24 h, 64 ug/ml was 78.2% in data set [1] and 63.3% in the data set “in vitro”. Also, the hemolysis at 1 h, 16 ug/ml in data set [2] was found to be 24.7%. Further, in data set [3], the hemolysis at 1 h, 32 ug/ml was 65.2%. The hemolysis at 1 h, 64 ug/ml in data set [4] was determined as 102%.

The values are drawn from ChEMBL document CHEMBL5150076, “Discovery of Novel Orally Bioavailable Triazoles with Potent and Broad-Spectrum Antifungal Activity In Vitro and In Vivo” (J Med Chem, 2022).
